# Experimental data from patent US6187770A, “N-substituted azaheterocyclic compounds” (Novo Nordisk A/S, priority 1998, dated 2001).
# Tested on: histamine induced blood glucose rise
# Assay: Histamine induced hyperglycemia in mice
# Type: in vivo
# Conditions: 1.0 mg/kg ip, 30 min before histamine chloride (90 nmol icv); blood glucose at 0 and 40 min; male NMRI mice
# Description: Conscious unfasted 25 g male NMRI mice are administered histamine chloride (90 nmol) icv according to the method of Nishibori et al. (J. Pharmacol. Exp. Therap. 241, […], 1987). Blood glucose is determined at time 0 and 40 min after the histamine injection. Test compounds are administered at 1.0 mg/kg ip 30 min before the histamine injection, and % inhibition refers to the capacity of the compounds to inhibit the histamine induced blood glucose rise.
smiles,measurement,value
"O=C(O)CCN1CCN2c3ccccc3Sc3ccccc3C2C1 (stereo not shown) [Example 4, 3-(1,3,4,14b-Tetrahydro-2H-dibenzo[b,f]pyrazino[1,2-d][1,4]thiazepin-2-yl)-propionic acid]",% inhibition of histamine induced hyperglycemia,48%
